Earlier results as cited in patent publication US7288559B2, “Carboxamide spirohydantoin CGRP receptor antagonists” (Merck + Co, Inc., priority 2003, dated 2007).
No end group written: not given here.

Legend:
[1] = test system: rat; details: trigeminal ganglion stimulation
[2] = test system: rats; details: electrical stimulation of the dura mater, prior administration
[3] = test system: marmoset; details: electrical stimulation of the trigeminal ganglion

## CGRP(8-37): a peptide CGRP antagonist (VTHRLAGLLSRSGGVVKNNFVPTNVGSKAF; ends and bridges not checked; UniProt P06881 90-119, looked up, fragment)
[1]
  effect on increased facial blood flow: inhibited
[2]
  effect on increase of middle meningeal artery diameter: blocked

## NCCCC[C@H](NC(=O)[C@@H](Cc1cc(Br)c(O)c(Br)c1)NC(=O)N1CCC(N2Cc3ccccc3NC2=O)CC1)C(=O)N1CCN(c2ccncc2)CC1 [BIBN4096BS]
[3]
  effect on increase in facial blood flow: blocked
